Data from patent US20190275088A1, “PRESERVATIVE SOLUTION FOR LIVE CELLS OR COMPOSITION CONTAINING LIVE CELLS” (TERUMO KABUSHIKI KAISHA, priority 2016, published 2019).

Key:
[1] = tested on: sheet-shaped human skeletal myoblast cell culture; assay: Cell survival rate confirmation test, preservative solution based on Hanks' balanced salt solution HBSS (+) (PI staining, flow cytometry); conditions: 2° C. to 8° C.
Experimental: (§1) The sheet-shaped cell cultures were prepared using skeletal myoblast cells (with fibroblast cells contained therein) prepared from a human skeletal muscle by a usual or known method. A cell mixture of human skeletal myoblast cells and human fibroblast cells suspended in a 20% human serum-containing DMEM/F12 medium (Thermo Fisher Scientific Inc.) was seeded at 3.7×10^6 cells/well on a temperature-responsive culture dish (UpCell® 12 well Multi-well, CellSeed Inc.), and was then subjected to the sheet-formation cultivation at 37° C. under 5% CO2 for 12 to 26 hours. After the sheet-formation cultivation, the medium was removed, 700 μL of HBSS (+) (Thermo Fisher Scientific Inc.) which was chilled to 4° C. was added, and then the resultant was left to stand for 10 minutes. Then, gentle pipetting was conducted such as to detach the sheet-shaped cell culture completely. The thus detached sheet-shaped cell culture naturally shrank.
After the sheet-shaped cell culture was completely detached, HBSS (+) was removed, and a fresh supply of room-temperature HBSS (+) was added to conduct rinsing. […]
The sheet-shaped cell culture left to stand under the refrigerated conditions in (1) above was put to measurement of cell survival rate. […] The analysis was conducted using a flow cytometer (Becton Dickinson), and the proportion of PI-unstained cells contained in the whole cells admixed with PI was measured. […]

[2] = tested on: sheet-shaped human skeletal myoblast cell culture; assay: Cell survival rate confirmation test, preservative solution based on physiological saline solution (PI staining, flow cytometry); conditions: 2° C. to 8° C.; for cell survival rate: three days
Experimental: as §1, with “completely.” for “completely. The thus detached sheet-shaped cell culture naturally shrank.”
After the sheet-shaped cell culture was completely detached, HBSS (+) was removed, and a fresh supply of room-temperature HBSS (+) was added to conduct rinsing. Such a washing step was repeated four times.
The sheet-shaped cell culture left to stand under the refrigerated conditions in (1) above was put to measurement of cell survival rate. After the sheet-shaped cell culture left to stand in the preservative solution for a predetermined period was dissociated with a trypsin-like protease, the cells were dispensed into a FACS tube to be 3.5×10^5 cells, followed by centrifugation, and the supernatant was discarded. To the resultant was added 3 ml of 0.5% BAS-containing PBS solution, and, after rinsing the cells by vortex, centrifugation was conducted, the supernatant was removed, and 500 μL of a propidium iodide (PI, Becton Dickinson) prepared to a final concentration of 0.6 μg/mL by use of a 0.5% BSA-containing PBS solution was added and mixed. […] The analysis was conducted using a flow cytometer (Becton Dickinson), and the proportion of PI-unstained cells contained in the whole cells admixed with PI was measured. […]

CC1=NN(c2ccccc2)C(=O)C1 [edaravone, 3-methyl-1-phenyl-2-pyrazolin-5-one]
cell survival rate as compared to HBSS (+) not admixed with edaravone ([1]; 100 μM edaravone in HBSS (+), three days to seven days): higher cell survival rate
lowering in the number of live cells from three days to seven days of preservation, compared to edaravone-nonadded HBSS (+) ([1]; HBSS (+)-based edaravone-added preservative solution (100 μM)): restrained
cell survival rate as compared to the case of no addition of edaravone ([2]; 1 μM or 10 μM edaravone in physiological saline solution, five days): increased

tocopherol [vitamin E]
cell survival rate ([2]; 10 μM vitamin E in physiological saline solution): approximately 65%
cell survival rate ([2]; 100 μM vitamin E in physiological saline solution): approximately 65%
